Source: ChEMBL document CHEMBL4706747, “Discovery of 5-Nitro-6-thiocyanatopyrimidines as Inhibitors of Cryptococcus neoformans and Cryptococcus gattii” (ACS Med Chem Lett, 2021)
In brackets after ≈: the same amount, converted by molar mass. Several values for one entry are separate records, joined by “and”; a condition that tells them apart may be missing. Equal values may be shown once.

Columns and labels:
Cryptococcus neoformans [1] = assay: Antifungal activity against Cryptococcus neoformans KN99alpha assessed as fungal growth inhibition after 48 hrs by limiting dilution method; type: functional
[2] = Antifungal activity against Cryptococcus gattii RSA-3615 assessed as fungal growth inhibition after 48 hrs by limiting dilution method; type: functional, Cryptococcus gattii VGI
[3] = Cytotoxicity against human HepDE19 cells incubated for 72 hrs by MTS assay; type: cell-based
Cryptococcus neoformans [4] = assay: Antifungal activity against fluconazole-resistant Cryptococcus neoformans DUMC-158.03 assessed as fungal growth inhibition after 48 hrs by limiting dilution method; type: functional
Cryptococcus neoformans [5] = assay: Antifungal activity against Cryptococcus neoformans assessed as fungal growth inhibition after 72 hrs by broth microdilution method; type: functional
[6] = Selectivity index, ratio of CC50 for human HepDE19 cells to MIC80 for Cryptococcus neoformans KN99alpha; type: toxicity; conditions: read-out: Selectivity Index
Cryptococcus neoformans [7] = assay: Synergistic antifungal activity against Cryptococcus neoformans KN99alpha assessed as fractional inhibitory concentration index in presence of fluconazole by checkerboard assay; type: functional
Cryptococcus neoformans [8] = assay: Synergistic antifungal activity against Cryptococcus neoformans KN99alpha assessed as fractional inhibitory concentration index in presence of amphotericin B by checkerboard assay; type: functional

MIC80 (Cryptococcus neoformans [1])	MIC80 [2]	Structure (SMILES)	CC50 at 72 h [3]	also measured
4.68 µM and 1.23 µg/mL	1.17 µM and 0.3 µg/mL	Cc1nc(SC#N)c([N+](=O)[O-])c(N2CCCC2)n1	–	–
9.37 µM and 3.25 µg/mL	1.17 µM and 0.4 µg/mL	CSc1nc(NCCc2ccccc2)c([N+](=O)[O-])c(SC#N)n1	15.4 µM and 5.35 µg/mL	–
> 50 µM and > 16.5 µg/mL	> 25 µM and > 8.23 µg/mL	CC(C)N(Cc1ccccc1)c1ncnc(SC#N)c1[N+](=O)[O-]	–	–
4.68 µM and 1.05 µg/mL	1.17 µM and 0.26 µg/mL	CN(C)c1ncnc(SC#N)c1[N+](=O)[O-]	–	–
4.55 µM and 1.4 µg/mL	1.17 µM and 0.3 µg/mL	CCN(c1ncnc(SC#N)c1[N+](=O)[O-])C(C)C	10.7 µM and 2.86 µg/mL	–
2.34 µM and 0.68 µg/mL	9.37 µM and 2.74 µg/mL	CC1CC(C)CN(c2ncnc(SC#N)c2[N+](=O)[O-])C1 (stereo unspecified)	33.6 µM and 9.86 µg/mL	–
9.37 µM and 3.32 µg/mL	4.68 µM and 1.66 µg/mL	N#CSc1ncnc(NCc2cccc(C(F)(F)F)c2)c1[N+](=O)[O-]	25.9 µM and 9.21 µg/mL	–
50 µM and 15.8 µg/mL	–	CC(C)Nc1nc(-c2ccccc2)nc(SC#N)c1[N+](=O)[O-]	–	–
9.37 µM and 3.25 µg/mL	4.68 µM and 1.62 µg/mL	CSc1nc(NCc2ccc(C)cc2)c([N+](=O)[O-])c(SC#N)n1	19.2 µM and 6.67 µg/mL	–
2.34 µM and 0.7 µg/mL	1.17 µM and 0.35 µg/mL	CN(Cc1ccccc1)c1ncnc(SC#N)c1[N+](=O)[O-]	18.8 µM and 5.66 µg/mL	–
4.68 µM and 1.37 µg/mL	2.34 µM and 0.68 µg/mL	N#CSc1ncnc(N2CCCCCCC2)c1[N+](=O)[O-]	–	–
1.9 µM and 0.45 µg/mL	1.17 µM and 0.27 µg/mL	CC(C)Oc1ncnc(SC#N)c1[N+](=O)[O-]	23.3 µM and 5.6 µg/mL	–
50 µM and 15.8 µg/mL	1.17 µM and 0.36 µg/mL	Cc1ccc(CNc2nc(C)nc(SC#N)c2[N+](=O)[O-])cc1	14.7 µM and 4.65 µg/mL	–
3 µM and 0.8 µg/mL	–	CC(C)C(C)Nc1ncnc(SC#N)c1[N+](=O)[O-] (stereo unspecified)	–	–
18.8 µM and 5.49 µg/mL	4.68 µM and 1.37 µg/mL	Cc1nc(SC#N)c([N+](=O)[O-])c(N2CCCCCC2)n1	–	–
9.37 µM and 2.74 µg/mL	15.6 µM and 4.58 µg/mL	CC1CCCC(C)N1c1ncnc(SC#N)c1[N+](=O)[O-] (stereo unspecified)	–	–
9.37 µM and 2.37 µg/mL	0.14 µM and 0.03 µg/mL	CCN(CC)c1ncnc(SC#N)c1[N+](=O)[O-]	–	–
9 µM and 2.51 µg/mL	2.34 µM and 0.65 µg/mL	Cc1nc(NC2CCCC2)c([N+](=O)[O-])c(SC#N)n1	–	–
–	–	O[C@@](Cn1cnnn1)(c1ccc(F)cc1F)C(F)(F)c1ccc(-c2ccc(OC(F)(F)F)cc2)cn1	–	MIC50 (Cryptococcus neoformans [5]): 0.015 mg/L (≈ 0.0292 µM); MIC (Cryptococcus neoformans [5]; read-out: MIC100): 0.06 mg/L (≈ 0.117 µM)
18.8 µM and 5.76 µg/mL	2.34 µM and 0.71 µg/mL	Cc1nc(SC#N)c([N+](=O)[O-])c(N2CCCCCCC2)n1	–	–

MIC80 (Cryptococcus neoformans [1])	MIC80 [2]	Structure (SMILES)	CC50 at 72 h [3]	also measured
9.37 µM and 2.5 µg/mL	2.34 µM and 0.62 µg/mL	CCN(CC)c1nc(C)nc(SC#N)c1[N+](=O)[O-]	–	–
50 µM and 15.1 µg/mL	18.8 µM and 5.64 µg/mL	Cc1nc(NCc2ccccc2)c([N+](=O)[O-])c(SC#N)n1	15.9 µM and 4.78 µg/mL	–
9 µM and 2.53 µg/mL	9.37 µM and 2.63 µg/mL	CCC(CC)Nc1nc(C)nc(SC#N)c1[N+](=O)[O-]	–	–
6 µM and 1.67 µg/mL	1.17 µM and 0.32 µg/mL	N#CSc1ncnc(NC2CCCCC2)c1[N+](=O)[O-]	–	–
5.85 µM and 1.88 µg/mL	1.17 µM and 0.37 µg/mL	N#CSc1ncnc(NCc2ccc(Cl)cc2)c1[N+](=O)[O-]	22.5 µM and 7.25 µg/mL	–
3.51 µM and 1.05 µg/mL	2.34 µM and 0.7 µg/mL	N#CSc1ncnc(NCCc2ccccc2)c1[N+](=O)[O-]	15.1 µM and 4.55 µg/mL	–
6 µM and 1.76 µg/mL	4.68 µM and 1.37 µg/mL	CN(c1ncnc(SC#N)c1[N+](=O)[O-])C1CCCCC1	25.3 µM and 7.42 µg/mL	–
18.8 µM and 5.76 µg/mL	9.37 µM and 2.88 µg/mL	Cc1nc(SC#N)c([N+](=O)[O-])c(N2CC(C)CC(C)C2)n1 (stereo unspecified)	–	–
18.5 µM and 4.94 µg/mL	> 25 µM and > 6.68 µg/mL	CCC(CC)Nc1ncnc(SC#N)c1[N+](=O)[O-]	–	–
9.37 µM and 1.98 µg/mL	> 25 µM and > 5.3 µg/mL	COc1ncnc(SC#N)c1[N+](=O)[O-]	–	–
50 µM and 15.8 µg/mL	2.34 µM and 0.73 µg/mL	Cc1nc(NCCc2ccccc2)c([N+](=O)[O-])c(SC#N)n1	12.3 µM and 3.87 µg/mL	–
9.37 µM and 2.61 µg/mL	1.17 µM and 0.32 µg/mL	CC1CCCCN1c1ncnc(SC#N)c1[N+](=O)[O-] (stereo unspecified)	–	–
4.68 µM and 1.11 µg/mL	2.34 µM and 0.55 µg/mL	Cc1nc(SC#N)c([N+](=O)[O-])c(N(C)C)n1	–	–
18.8 µM and 5.49 µg/mL	0.58 µM and 0.16 µg/mL	Cc1nc(SC#N)c([N+](=O)[O-])c(N2CCCCC2C)n1 (stereo unspecified)	–	–
> 50 µM and > 15.7 µg/mL	> 25 µM and > 7.83 µg/mL	CNc1nc(/C=C/c2ccccc2)nc(SC#N)c1[N+](=O)[O-]	–	–
> 50 µM and > 24.6 µg/mL	> 25 µM and > 12.3 µg/mL	Cc1nc(NC2CCCCC2)c([N+](=O)[O-])c(SC#N)n1	–	–
4.68 µM and 0.92 µg/mL	1.17 µM and 0.22 µg/mL	N#CSc1ncnc(N)c1[N+](=O)[O-]	–	–
4.68 µM and 1.56 µg/mL	4.68 µM and 1.56 µg/mL	CSc1nc(NCc2ccccc2)c([N+](=O)[O-])c(SC#N)n1	18.6 µM and 6.2 µg/mL	–
3.9 µM and 0.93 µg/mL	4.68 µM and 1.12 µg/mL	CCCOc1ncnc(SC#N)c1[N+](=O)[O-]	31.8 µM and 7.64 µg/mL	–

Structure (SMILES)	MIC80 (Cryptococcus neoformans [1])	MIC80 [2]	CC50 at 72 h [3]	also measured
Cc1nc(OC(C)C)c([N+](=O)[O-])c(SC#N)n1	1 µM and 0.25 µg/mL	1.17 µM and 0.29 µg/mL	14.6 µM and 3.71 µg/mL	MIC80 (Cryptococcus neoformans [4]): 1.17 µM and 0.29 µg/mL
Cc1nc(N)c([N+](=O)[O-])c(SC#N)n1	2.34 µM and 0.48 µg/mL	0.58 µM and 0.12 µg/mL	24.5 µM and 5.17 µg/mL	MIC80 (Cryptococcus neoformans [4]): 2.34 µM and 0.49 µg/mL
N#CSc1ncnc(N2CCCCC2)c1[N+](=O)[O-]	2.34 µM and 0.61 µg/mL	1.17 µM and 0.3 µg/mL	11.9 µM and 3.16 µg/mL	MIC80 (Cryptococcus neoformans [4]): 4.68 µM and 1.24 µg/mL
N#CSc1ncnc(NCc2ccccc2)c1[N+](=O)[O-]	2.34 µM and 0.66 µg/mL	1.17 µM and 0.33 µg/mL	19.6 µM and 5.63 µg/mL	MIC80 (Cryptococcus neoformans [4]): 1.17 µM and 0.33 µg/mL
CCOc1nc(C)nc(SC#N)c1[N+](=O)[O-]	1.17 µM and 0.27 µg/mL	0.29 µM and 0.06 µg/mL	19.8 µM and 4.76 µg/mL	MIC80 (Cryptococcus neoformans [4]): 2.34 µM and 0.56 µg/mL
N#CSc1ncnc(NC2CCCC2)c1[N+](=O)[O-]	4.9 µM and 1.29 µg/mL	1.17 µM and 0.3 µg/mL	–	MIC80 (Cryptococcus neoformans [4]): 2.34 µM and 0.62 µg/mL
CCCOc1nc(C)nc(SC#N)c1[N+](=O)[O-]	0.6 µM and 0.15 µg/mL	1.17 µM and 0.29 µg/mL	15.8 µM and 4.02 µg/mL	MIC80 (Cryptococcus neoformans [4]): 1.17 µM and 0.29 µg/mL
Cc1nc(NC2CC2)c([N+](=O)[O-])c(SC#N)n1	0.6 µM and 0.15 µg/mL	0.58 µM and 0.14 µg/mL	12.7 µM and 3.19 µg/mL	MIC80 (Cryptococcus neoformans [4]): 1.17 µM and 0.29 µg/mL; selectivity ratio [6]: 16; fractional inhibitory concentration index (FICI) (Cryptococcus neoformans [7]): 1.5; fractional inhibitory concentration index (FICI) (Cryptococcus neoformans [8]): 1.25
CC(C)Nc1nc(C(F)(F)F)nc(SC#N)c1[N+](=O)[O-]	12.2 µM and 4.4 µg/mL	> 25 µM and > 7.68 µg/mL	42.8 µM and 13.2 µg/mL	MIC80 (Cryptococcus neoformans [4]): 18.8 µM and 5.76 µg/mL
CC(C)Nc1ncnc(SC#N)c1[N+](=O)[O-]	2.34 µM and 0.55 µg/mL	0.58 µM and 0.13 µg/mL	12 µM and 2.87 µg/mL	MIC80 (Cryptococcus neoformans [4]): 2.34 µM and 0.55 µg/mL
N#CSc1ncnc(N2CCCCCC2)c1[N+](=O)[O-]	2.34 µM and 0.65 µg/mL	2.34 µM and 0.65 µg/mL	17.7 µM and 4.94 µg/mL	MIC80 (Cryptococcus neoformans [4]): 2.34 µM and 0.65 µg/mL
CNc1nc(C)nc(SC#N)c1[N+](=O)[O-]	2.34 µM and 0.52 µg/mL	1.17 µM and 0.26 µg/mL	> 100 µM and > 22.5 µg/mL	MIC80 (Cryptococcus neoformans [4]): 2.34 µM and 0.52 µg/mL
